# Patent US5817755A, “Synthetic peptide analogs of cross-linked N-telopeptides of type I collagen” (Washington Research Foundation, priority 1997, dated 1998)
# Non-standard residues stand in square brackets, D forms with d. Residues, ends and D or L forms follow the SMILES beside them. pGlu = O=C1CC[C@@H](C(=O)O)N1; Nva = CCC[C@H](N)C(=O)O
# Legend:
# mAb 1H11 [1] = experiment: OSTEOMARK competitive immunoassay testing apparent affinity of synthetic peptides for mAb 1H11; assay type: binding; settings: for Results: peptide binding to mAb 1H11, 1 μg synthetic peptide = X nmole BCE: nanomoles Bone Collagen Equivalents equivalent to 1 μg peptide, back fit into OSTEOMARK standard curve, values between 0.5 and 1 OD averaged; for binding to mAb 1H11 (in words): synthetic peptide, antibody inhibition assay
# Source text: Generally, a milligram per mL solution of the peptide was made in PBS. The absorbence at A280 was read and the concentration confirmed. Dilutions of the peptide were then made in a buffer such as OSTEOMARK (TM) calibrator diluent (OSTEOMARK Assay, Ostex International, Seattle, Wash.). Working strength concentrations were between 10 and 0.01 micrograms per milliliter.
# To test the apparent affinity of the synthetic peptides for mAb 1H11, the OSTEOMARK assay was run using OSTEOMARK kits and components, including monoclonal antibody 1H11. A standard curve was run using OSTEOMARK calibrators. Peptide samples were generally tested at 10, 3, 1, and down to 0.01 μG per mL. The standard OSTEOMARK curve was generated using a four parameter logistic curve fit program (MedData Inc., N.Y., N.Y.). Peptide values were back fit into the standard curve and values were reported in picomoles Bone Collagen Equivalents (BCE)/mL (which equals nanomolar BCE, or nM BCE).
# Values in the Table are reported as the number of nanomoles of BCE equivalent to a microgram of a given peptide. Antibody binding values below 500 nMole BCE were considered to be commercially insignificant.
# mAb 1H11 [2] = settings: linear peptides in which K is simply lysine; WO 91/08478; Hanson et al. 1992; cited from earlier work
"Results: peptide binding to mAb 1H11, 1 μg synthetic peptide = X nmole BCE (mAb 1H11 [1])",binding to mAb 1H11 (in words) (mAb 1H11 [1]),Molecule,recognition by mAb 1H11 (in words) (mAb 1H11 [2])
100 nmole BCE,very weak binding partner,"CC(C)[C@H](NC(=O)CNC(=O)[C@H](CCCCN)NC(=O)CNC(=O)[C@H](CC(=O)O)NC(=O)[C@H](Cc1ccc(O)cc1)NC(=O)[C@@H]1CCC(=O)N1)C(=O)NCC(=O)O [SEQ ID NO:9, J Y D G K G V G] ([pGlu]YDGKGVG-OH)",recognized very weakly
14 nmole BCE,blocks mAb 1H11 binding,"CC(C)[C@H](NC(=O)CNC(=O)[C@H](CCC(=O)O)NC(=O)CNC(=O)[C@H](CC(=O)O)NC(=O)[C@H](Cc1ccccc1)NC(=O)[C@@H]1CCC(=O)N1)C(=O)NCC(=O)O [SEQ ID NO:36, J F D G E G V G] ([pGlu]FDGEGVG-OH)",–
860 nmole BCE,–,"CCC[C@H](NC(=O)CNC(=O)[C@H](CC(=O)O)NC(=O)[C@H](Cc1ccc(O)cc1)NC(=O)[C@@H]1CCC(=O)N1)C(=O)NCC(=O)N[C@H](C(=O)NCC(=O)O)C(C)C [SEQ ID NO:38, J Y D G X^5 G V G] ([pGlu]YDG[Nva]GVG-OH)",–
< 50 nmole BCE,prevented recognition,"CC(C)[C@H](NC(=O)CNC(=O)[C@H](CCC(=O)O)NC(=O)CNC(=O)[C@H](CC(=O)O)NC(=O)[C@H](Cc1ccc(O)cc1)NC(=O)[C@@H]1CCC(=O)N1)C(=O)NCC(N)=O [SEQ ID NO:44, J Y D G E G V X^6] ([pGlu]YDGEGVG-NH2)",–
2500 nmole BCE,excellent binding to mAb 1H11,J Y D G C G V G [SEQ ID NO:2],–
< 50 nmole BCE,prevents mAb 1H11 binding,"J Y D G E G V G L [SEQ ID NO:40, b13: -Lys added to the C-terminus]",–

Molecule,"Results: peptide binding to mAb 1H11, 1 μg synthetic peptide = X nmole BCE (mAb 1H11 [1])",binding to mAb 1H11 (in words) (mAb 1H11 [1]),recognition by mAb 1H11 (in words) (mAb 1H11 [2])
"CC(C)[C@H](NC(=O)CNC(=O)[C@H](CCC(=O)O)NC(=O)[C@@H](NC(=O)[C@H](CC(=O)O)NC(=O)[C@H](Cc1ccc(O)cc1)NC(=O)[C@@H]1CCC(=O)N1)C(C)C)C(=O)NCC(=O)O [SEQ ID NO:37, J Y D V E G V G] ([pGlu]YDVEGVG-OH)",6 nmole BCE,substantially eliminates mAb 1H11 binding affinity,–
J Y D G E G V G [SEQ ID NO:29],< 50 nmole BCE,eliminate the requisite binding of mAb 1H11,–
